Experiments:
primary cultured myotube = assay: Primary cell culture and real-time PCR gene expression analysis; type: cell-based, mouse; details: 300 nM, real-time PCR
Experimental: (§1) However, it has not been reported that the PPARs response element (PPRE) is present at promoters of these three genes. Therefore, the present inventors resected the muscle of the mouse with the removal of PPAR δ gene and conducted primary culture, in order to verify whether or not the increases in expressions of the above three genes are PPAR δ-dependent. After hind legs of a five-day-old fetus was resected, primary culture was conducted by the same method as developed by Rando (Rando et al, J. Cell. Biol., 1994, 125, 1275-1287). Myoblast, after being cultured, was transferred to a 6-well plate, and then differentiated into myotube while being treated with 300 nM of PPAR δ agonist (CMDD1111). The differentiated myotube was further treated with 300 nM of PPAR δ agonist (CMDD1111) for 2 days, and then total RNA was extracted by using a TRIzol reagent (Gibco). The extracted RNA was subjected to reverse transcription, to synthesize cDNA, which was then used as a template for real-time PCR analysis.

PPAR δ-deficient cells = assay: Primary cell culture and real-time PCR gene expression analysis, PPAR δ-deficient cells; type: cell-based, mouse; details: 300 nM
Experimental: as §1
As the result of real-time PCR analysis, expressions of PDK4 and CPT-1, known to be directly regulated by PPAR δ, were increased by 2.2 fold and 1.5 fold, respectively. However, there was no change in PPAR δ-deficient cells. This means that expressions of PDK4 and CPT-1 are PPAR δ-dependently regulated. […]

[1] = system: cytosolic calcium in differentiated muscle cells; assay: Analysis of cytosolic calcium (Flou4, confocal microscope); type: cell-based, mouse; details: 300 nM, 10 mM caffeine, calcium-free Kreb solution
Experimental: An experiment using a calcium-specific dye reagent, Flou4(Molecular probe), was conducted in order to confirm the effect on concentration of cytosolic calcium by the changes of RYR, SERCA, and PLN. The experiment method is as follows. The isolated muscle cells were grown on a culture plate with an attached glass slide through primary culture, and then differentiated into myotube while being treated with 300 nM of PPAR δ agonist (CMDD1111). Flou4 (final concentration: 5 μM) dye reagent was put into the differentiated muscle cells, which were then cultured for 30 minutes. The calcium-free Kreb solution was used as a culture medium to measure the change of cytosolic calcium, and treatment with 10 mM of caffeine was conducted to activate calcium channels. Intracellular calcium ion change was measured by using a confocal microscope. As the measurement result, the retention time of cytosolic calcium was increased by 43% (592±60 versus 847±77 sec) in the muscle cell to which PPAR δ agonist (CMDD1111) was added (FIG. 13). The reason was that expressions of RYR regulating calcium efflux and PLN suppressing calcium influx in the sarcoplasmic membrane were increased by PPAR δ. […]

[2] = system: mice subjected to fetal reprogramming; assay: Respiratory exchange ratio (RER) measurement using Oximax; type: in vivo
Experimental: RER is a ratio of the amount of CO2 exhaled to O2 inhaled in one breath. The RER is 1.0 when carbohydrate is mainly used for energy production, while the RER is 0.7 when fat is used. […] The RER experiment using Oximax (Columbus) was conducted in order to evaluate whether or not this increase in slow muscle fiber generation actually influenced mouse energy metabolism. […] Since the RER has a periodic value depending on the time, the RER difference between the two groups was more clearly compared by using AUL, in order to check the RER difference between the two groups. The average AUL value of the control group was 107.4±1.4. Whereas, the average AUL value of the mouse group subjected to fetal reprogramming was 102.2±2.8, which was lower than that of the mouse control group (FIG. 17).
The present inventors checked a difference in lipid oxidation capacity between the two groups by using the following equations.
Carbohydrate oxidation=(4.51·RER−3.18)·VO2
Lipid oxidation=1.67·(1−RER)·VO2
As the calculation result, it may be seen that the mouse group to which PPAR δ agonist (CMDD1111) was administered during the fetal programming period used more lipid by average 44% (6.6 mg/kgmin vs. 9.5 mg/kgmin) but less carbohydrate by 20% (48 mg/kgmin vs. 38 mg/kgmin), as compared with the control group to which vehicle was administered. Therefore, it may be seen that the mice in which PPAR δ was activated during the fetal programming period had increased slow muscle fiber generation and thus increased the lipometabolism.

[3] = system: mice subjected to fetal reprogramming; assay: Glucose tolerance test (GTT) of fetal-reprogrammed mice after high-fat feedstuff; type: in vivo; details: GTT after 17 weeks high-fat feedstuff
Experimental: The present researchers conducted the glucose tolerance test (GTT) after the mice were fed with high-fat feedstuff for 17 weeks to induce diabetes. The experiment was conducted following the method proposed by Kelly, and challenged with over-night fasting in order to confirm the role thereof in the muscle. Glucose ([…]) was administered by using intraperitoneal injection, and then the blood glucose level change was measured for 2 hours. As a result, the fasting blood glucose level was lower, the maximum blood glucose concentration was lower, and the glucose clearance time was shorter in the mice of the administration group as compared with the mice of the control group (FIG. 19). At the same time, the insulin tolerance test was conducted (FIG. 20). To sum the above results up, it may be seen that animals subjected to fetal reprogramming by PPAR δ activation enhanced endurance due to an increase in slow muscle fibers and prevented and suppressed the occurrence of obesity and diabetes due to high-fat diet.

[4] = system: leptin receptor-deficient mouse (db/db); assay: Glucose tolerance test in type II diabetes mouse model after fetal reprogramming; type: in vivo; details: homo type male db/db fetuses; mother dosed only during lactation
Experimental: The present researchers have checked the fetal reprogramming effect of PPAR δ by using a leptin receptor-deficient mouse (db/db). After hetero type female and male mice were bred, the PPAR δ agonist (CMDD1111) was administered to the female mice only during the lactation period. The glucose tolerance test (GTT) was conducted using only homo type male fetuses having induced diabetes through gene analysis and blood glucose analysis.

## Cc1cc(SC(Cc2ccccc2)c2sc(-c3ccc(C(F)(F)F)cc3)nc2C)ccc1OCC(=O)O (stereo not drawn) [CMDD1111]
Primary cultured myotube
  expression of ATP2A2: 4.3 fold
  expression of CPT-1: 1.5 fold
  expression of PDK4: 2.2 fold
  expression of PLN: 1.7 fold
  expression of RYR: 2.2 fold
  expression of TNNI3: 1.7 fold
PPAR δ-deficient cells
  expressions of PDK4 and CPT-1: no change
[1]
  increase of retention time of cytosolic calcium: 43%
  retention time of cytosolic calcium: 847 ± 77 s
[2]; calculated from RER and VO2
  carbohydrate oxidation: 38 mg/kgmin
  less carbohydrate used versus vehicle control: 20%
  lipid oxidation: 9.5 mg/kgmin
  more lipid used versus vehicle control: 44%
[2]; mouse group subjected to fetal reprogramming
  average AUL value of RER: 102.2±2.8
[3]
  fasting blood glucose level versus control: lower
  glucose clearance time versus control: shorter
  maximum blood glucose concentration versus control: lower
[4]
  glucose tolerance (GTT): improved

Source: patent publication US20130197043A1, “USE OF THE FETAL REPROGRAMMING OF A PPAR AGONIST” (SNU R&DB FOUNDATION, priority 2010, published 2013)
